Consider 2 molecules from patent US8357681B2, “Composition and method for controlling pests” (priority 2008, dated 2013).

The test deals with Pythium ultimum, pathogen of cucumber damping-off. Put plainly: Cucumber damping-off seed treatment test (Test Example 1). Type of test: in vivo. To be noted: cucumber seeds, 18° C., 13 days. An excerpt:
An acetone solution of ethaboxam and an acetone solution of clothianidin were mixed to prepare mixed liquids containing ethaboxam and clothianidin in predetermined concentration. These mixed liquids were adhered on the surface of cucumber (Sagamihanjiro) seeds and allowed to stand still overnight. A plastic pot was filled with sandy soil and the seeds were disseminated on it. Then the seeds were covered with sandy soil which had been mixed with a bran medium on which Pythium ultimum, pathogen of cucumber damping-off, had been allowed to grow. They were irrigated and allowed to grow at 18° C. under humidity for 13 days, and thereafter control effect was checked.
As a comparison, acetone solutions containing ethaboxam in the predetermined concentration and acetone solutions containing clothianidin in the predetermined concentration were prepared and subjected to similar tests.
The incidence of disease was calculated by Equation 1 and the control value was calculated by Equation 2 based on the incidence of disease.
A: Incidence of disease of plant in untreated area
B: Incidence of disease of plant in treated area
E=X+Y−(X×Y)/100 “Equation 2”

For the molecule `CCNc1nc(CC)c(C(=O)NC(C#N)c2cccs2)s1` (stereo not shown) [Ethaboxam, ethaboxam], the Actual control value by setting is: (ethaboxam 5 g ai/100 kg-seed alone) 60%; (ethaboxam 10 g ai/100 kg-seed alone) 73%.
`CN/C(=N\[N+](=O)[O-])NCc1cnc(Cl)s1` [clothianidin] had an Actual control value (clothianidin 150 g ai/100 kg-seed alone) of 0.0% and an Actual control value (clothianidin 300 g ai/100 kg-seed alone) of 0.0%.
